For orientation: EC50 means the concentration giving half of the maximal effect.

The results in this text go back to patent US11040026B2, “Muscarinic M1 receptor positive allosteric modulators” (SUVEN LIFE SCIENCES LIMITED, priority 2016, dated 2021).

Where a name gives a salt, the structure may show the parent alone.

The experiment addresses T1, muscarinic M1 receptor (Homo sapiens, UniProt P11229).
T1 sequence (P11229 1-460): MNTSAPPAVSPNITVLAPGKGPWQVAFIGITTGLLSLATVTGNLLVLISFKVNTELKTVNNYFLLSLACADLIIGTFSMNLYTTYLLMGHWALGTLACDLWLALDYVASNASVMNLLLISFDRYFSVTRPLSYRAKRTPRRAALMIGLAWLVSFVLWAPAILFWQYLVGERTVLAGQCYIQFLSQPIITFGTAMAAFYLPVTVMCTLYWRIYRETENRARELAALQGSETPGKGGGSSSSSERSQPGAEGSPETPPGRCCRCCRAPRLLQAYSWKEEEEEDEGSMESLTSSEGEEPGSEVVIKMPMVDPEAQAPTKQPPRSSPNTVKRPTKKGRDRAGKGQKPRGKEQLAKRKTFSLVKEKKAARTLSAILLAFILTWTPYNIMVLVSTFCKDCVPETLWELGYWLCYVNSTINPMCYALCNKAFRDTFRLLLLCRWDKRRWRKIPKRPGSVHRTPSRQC
As to the kind of experiment: Allosteric potency EC50 for muscarinic M1 receptor (CHO pCRE-Luc reporter assay). The following applies: in presence of EC20 of acetylcholine; CHO cells, luciferase reporter, 4 hours. In kind it is cell-based. As for the experimental part:
Determination of Allosteric Potency EC50 Values for Muscarinic M1 Receptor:
A stable CHO cell line expressing recombinant human Muscarinic M1 receptor and pCRE-Luc reporter system was used for cell-based assay. The assay offers a non-radioactive based approach to determine binding of a compound to GPCRs. In this specific assay, the level of intracellular cyclic AMP which is modulated by activation or inhibition of the receptor is measured. The recombinant cells harbor luciferase reporter gene under the control of cyclic AMP response element.
The above cells were grown in 96 well clear bottom white plates in Hams F12 medium containing 10% fetal bovine serum (FBS). Prior to the addition of compounds or standard agonist, cells were serum starved overnight. Increasing concentrations of test compounds were added along with EC20 of acetylcholine in OptiMEM medium to the cells. The incubation was continued at 37° C. in CO2 incubator for 4 hours. Medium was removed and cells were washed with phosphate buffered saline. The cells were lysed and luciferase activity was measured in a Luminometer. Luminescence units were plotted against the compound concentrations using Graphpad software. EC50 values of the compounds were defined as the concentration required in stimulating the luciferase activity by 50% in presence of EC20 of acetylcholine and the results are provided in table 1.
For orientation: In a reporter assay the amount or activity of a reporter protein is the signal.
Turning to `Cc1cc(Cc2cc(C(=O)N[C@H]3CCCC[C@@H]3O)nc3c2ccn3C)ccn1` [Example 17, N-[(1S,2S)-2-Hydroxycyclohexyl]-4-(2-methylpyridin-4-ylmethyl)-1-methyl-1H-pyrrolo[2,3-b]pyridine-6-carboxamide], the EC50 stood at 1630 nM.

With `CN1CCOc2c(Cc3ccc(-n4cccn4)cc3)cc(C(=O)N[C@H]3CCCC[C@@H]3O)nc21` [Example 129, N-[(1S,2S)-2-Hydroxycyclohexyl]-8-[4-pyrazol-1-ylbenzyl]-4-methyl-2H-pyrido[3,2-b][1,4]oxazine-6-carboxamide], the EC50 turned out to be 15 nM.

`Cn1ccc2c(Cc3cccc(F)c3F)cc(C(=O)N[C@@H]3CCOC[C@H]3O)nc21` (single isomer, unassigned; isomer-ii) [Example 44, trans-N-(3-Hydroxytetrahydropyran-4-yl)-4-(2,3-difluorobenzyl)-1-methyl-1H-pyrrolo[2,3-b]pyridine-6-carboxamide (Isomer-II)]: the EC50 came to 748 nM.

In the case of `Cn1ccc2c(Cc3ccnc(F)c3)cc(C(=O)NC3CCOCC3O)nc21` (single isomer, unassigned) [Example 38, Racemic trans-N-(3-Hydroxytetrahydropyran-4-yl)-4-(2-fluoropyridin-4-ylmethyl)-1-methyl-1H-pyrrolo[2,3-b]pyridine-6-carboxamide], the EC50 was 983 nM.

For the molecule `Cn1ccc2c(Cc3ccc(Cl)nc3)cc(C(=O)N[C@H]3CCOC[C@H]3O)nc21` (single isomer, unassigned; isomer-ii) [Example 50, cis-N-(3-Hydroxytetrahydropyran-4-yl)-4-(2-chloropyridin-5-ylmethyl)-1-methyl-1H-pyrrolo[2,3-b]pyridine-6-carboxamide (Isomer-II)], the EC50 is 2920 nM.

`Cn1cc(-c2ccc(Cc3cc(C(=O)N[C@H]4CCCC[C@@H]4O)nc4c3ccn4C)cn2)cn1` [Example 15, N-[(1S,2S)-2-Hydroxycyclohexyl]-4-[2-(1-methyl-1H-pyrazol-4-yl)pyridin-5-ylmethyl]-1-methyl-1H-pyrrolo[2,3-b]pyridine-6-carboxamide]: the EC50 turned out to be 38 nM.

For `Cn1ccc2c(Cc3ccc(F)c(F)c3)cc(C(=O)N[C@H]3CCOC[C@H]3O)nc21` (single isomer, unassigned; isomer-ii) [Example 42, cis-N-(3-Hydroxytetrahydropyran-4-yl)-4-(3,4-difluorobenzyl)-1-methyl-1H-pyrrolo[2,3-b]pyridine-6-carboxamide (Isomer-II)], the EC50 was determined as 2290 nM.

As for `O=C(N[C@@H]1CCOC[C@H]1O)c1cc(Cc2ccc(F)cc2)c2c(n1)CNCC2` (single isomer, unassigned; isomer-ii) [Example 98, trans-N-(3-Hydroxytetrahydropyran-4-yl)-4-(4-fluorobenzyl)-5,6,7,8-tetrahydro[1,7]naphthyridine-2-carboxamide Hydrochloride (Isomer-II)], the EC50 turned out to be 109 nM.

As for `CN1CCc2c(Cc3ccc(F)cc3)cc(C(=O)N[C@H]3CCCC[C@@H]3O)nc21` [Example 76, N-[(1S,2S)-2-Hydroxycyclohexyl]-4-(4-fluorobenzyl)-1-methyl-2,3-dihydro-1H-pyrrolo[2,3-b]pyridine-6-carboxamide], the EC50 was 380 nM.

In the case of `Cn1ccc2nc(C(=O)N[C@H]3CCCC[C@@H]3O)cc(Cc3ccc(F)cc3)c21` [Example 137, N-[(1S,2S)-2-Hydroxycyclohexyl]-7-(4-fluorobenzyl)-1-methyl-1H-pyrrolo[3,2-b]pyridine-5-carboxamide], the EC50 was 641 nM.

With `Cn1ccc2c(Cc3ccc4ncsc4c3)cc(C(=O)N[C@H]3CCCC[C@@H]3O)nc21` [Example 12, N-[(1S,2S)-2-Hydroxycyclohexyl]-4-(benzothiazol-6-ylmethyl)-1-methyl-1H-pyrrolo[2,3-b]pyridine-6-carboxamide], the EC50 worked out at 306 nM.

Consider `Cn1ccc2c(Cc3ccc(-c4cscn4)cc3)cc(C(=O)NCC3(O)CCCC3)nc21` [Example 26, N-(1-Hydroxycyclopentylmethyl)-4-[4-(thiazol-4-yl)benzyl]-1-methyl-1H-pyrrolo[2,3-b]pyridine-6-carboxamide], for which the concentration for a half-maximal effect (EC50) was 221 nM.

For `O=C(N[C@@H]1CCOC[C@H]1O)c1cc(Cc2ccc(F)cc2)c2c(n1)OCCO2` (single isomer, unassigned) [Example 113, trans-N-(3-Hydroxytetrahydropyran-4-yl)-8-(4-fluorobenzyl)-2,3-dihydro-[1,4]dioxino[2,3-b]pyridine-6-carboxamide (Isomer-IT)], the EC50 amounted to 136 nM.

As for `Cn1ccc2c(Cc3cccc(F)c3F)cc(C(=O)N[C@@H]3CCOC[C@H]3O)nc21` (single isomer, unassigned; isomer-i) [Example 43, trans-N-(3-Hydroxytetrahydropyran-4-yl)-4-(2,3-difluorobenzyl)-1-methyl-1H-pyrrolo[2,3-b]pyridine-6-carboxamide (Isomer-I)], the EC50 is 2530 nM.

For the molecule `Cn1ccc2c(Cc3cccc(F)c3)cc(C(=O)N[C@H]3CCCC[C@@H]3O)nc21` [Example 25, N-[(1S,2S)-2-Hydroxycyclohexyl]-4-(3-fluorobenzyl)-1-methyl-1H-pyrrolo[2,3-b]pyridine-6-carboxamide], the EC50 stood at 362 nM.

As to `COc1ccc(Cc2cc(C(=O)N[C@H]3CCCC[C@@H]3O)nc3c2OCCN3C)cc1` [Example 127, N-[(1S,2S)-2-Hydroxycyclohexyl]-8-(4-methoxybenzyl)-4-methyl-2H-pyrido[3,2-b][1,4]oxazine-6-carboxamide], the EC50 worked out at 946 nM.

Consider `COc1ccc(Cc2cc(C(=O)N[C@H]3CCCC[C@@H]3O)nc3c2OCCO3)cc1` [Example 104, N-[(1S,2S)-2-Hydroxycyclohexyl]-8-(4-methoxybenzyl)-2,3-dihydro-[1,4]dioxino[2,3-b]pyridine-6-carboxamide], for which the EC50 is 231 nM.

Regarding `COc1ccc(Cc2cc(C(=O)N[C@@H]3CCOC[C@H]3O)nc3c2ccn3C)cc1` (single isomer, unassigned; isomer-ii) [Example 61, trans-N-(3-Hydroxytetrahydropyran-4-yl)-4-(4-methoxybenzyl)-1-methyl-1H-pyrrolo[2,3-b]pyridine-6-carboxamide (Isomer-II)], the EC50 is 222 nM.

Take `Cn1ccc2c(Cc3ccc(F)c(F)c3)cc(C(=O)N[C@H]3CCOC[C@H]3O)nc21` (single isomer, unassigned; isomer-i) [Example 41, cis-N-(3-Hydroxytetrahydropyran-4-yl)-4-(3,4-difluorobenzyl)-1-methyl-1H-pyrrolo[2,3-b]pyridine-6-carboxamide (Isomer-I)]: the concentration giving a half-maximal response (EC50) was 1230 nM.

For `Cn1ccc2c(Cc3ccc(F)cc3)cc(C(=O)N[C@H]3CCOC[C@H]3O)nc21` (single isomer, unassigned; isomer-ii) [Example 37, cis-N-(3-Hydroxytetrahydropyran-4-yl)-4-(4-fluorobenzyl)-1-methyl-1H-pyrrolo[2,3-b]pyridine-6-carboxamide (Isomer-II)], the EC50 was 1250 nM.

As for `Cn1ccc2c(Cc3ccc(-n4cccn4)cc3)cc(C(=O)N[C@H]3CCCC[C@@H]3O)nc21` [Example 6, N-[(1S,2S)-2-Hydroxycyclohexyl]-4-(4-pyrazol-1-ylbenzyl)-1-methyl-1H-pyrrolo[2,3-b]pyridine-6-carboxamide], the EC50 is 15 nM.

In the case of `Cn1ccc2c(Cc3ccc(-c4cscn4)cc3)cc(C(=O)NC3CCOCC3O)nc21` (racemic) [Example 53, Racemic trans-N-(3-Hydroxytetrahydropyran-4-yl)-4-[4-(thiazol-4-yl)benzyl]-1-methyl-1H-pyrrolo[2,3-b]pyridine-6-carboxamide], the EC50 was 31 nM.

For `COc1ccc(Cc2cc(C(=O)N[C@H]3CCCC[C@@H]3O)nc3c2ccn3C)cn1` [Example 2, N-[(1S,2S)-2-Hydroxycyclohexyl]-4-(2-methoxypyridin-5-ylmethyl)-1-methyl-1H-pyrrolo[2,3-b]pyridine-6-carboxamide], the EC50 is 1080 nM.

As for `O=C(N[C@@H]1CCOC[C@H]1O)c1cc(Cc2ccc(-c3cscn3)cc2)c2c(n1)CNCC2` (single isomer, unassigned; isomer-ii) [Example 97, trans-N-(3-Hydroxytetrahydropyran-4-yl)-4-[4-(thiazol-4-yl)benzyl]-5,6,7,8-tetrahydro[1,7]naphthyridine-2-carboxamide Hydrochloride (Isomer-II)], the EC50 was determined as 6 nM.

Turning to `CN1CCOc2c(Cc3ccc(-c4cnn(C)c4)cc3)cc(C(=O)N[C@H]3CCCC[C@@H]3O)nc21` [Example 122, N-[(1S,2S)-2-Hydroxycyclohexyl]-8-[4-(1-methyl-1H-pyrazol-4-yl)benzyl]-4-methyl-2H-pyrido[3,2-b][1,4]oxazine-6-carboxamide], the EC50 was found to be 85 nM.
